From patent US12054498B2, “Heteroaromatic macrocyclic ether chemotherapeutic agents” (Nuvalent, Inc., priority 2020, dated 2024)

Tests used:
ROS1-wt = target: T1, ROS1-wt (Homo sapiens, UniProt P08922); test: Biochemical kinase assay, ROS1-wt kinase domain; conditions: apparent inhibitory constant, Morrison equation; ATP 2 mM in substrate solution; read-out: ROS1-wt Ki^app
T1 construct: purchased Carna 08-163
How it was run: (§1)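 Compounds, as 100-fold DMSO stocks, were dispensed first, then substrate mix was added (ATP 2 mM, AQT0101 26 μM, in 50 mM HEPES pH 7.5/10 mM MgCl2). Reactions ran at 30 °C with fluorescence logged every 2 min over 120 min. Apparent inhibition constants came from fitting rates to Morrison's tight-binding equation.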

ALK L1196M/G1202R = target: T2, ALK L1196M/G1202R (Homo sapiens, UniProt Q9UM73, G1202R/L1196M); test: Biochemical kinase assay, ALK L1196M/G1202R kinase domain; conditions: apparent inhibitory constant, Morrison equation; ATP 2 mM in substrate solution; read-out: ALK-L1196M-G1202R Ki^app
T2 construct: purchased SignalChem A19-12NG
How it was run: (§2)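 Kinase domains (in kinase solution: ROS1-G2032R 0.5 nM, ROS1-wt 0.6 nM, TRKA 1 nM, ALK L1196M/G1202R 3 nM) were mixed with compound and a substrate solution of 2 mM ATP plus 26 μM fluorogenic AQT0101 (ALK, ROS1) or AQT0104 (TRKA) in HEPES pH 7.5/MgCl2. Fluorescence was followed for 120 min at 30° C; Ki^app was obtained by Morrison fit of initial rates.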

[1] = target: T3, Ba/F3 cells CD74-ROS1 wild-type (wt) (Homo sapiens, UniProt P08922); test: Ba/F3 cell proliferation assay, CD74-ROS1 wild-type; format: cell-based; conditions: 72 hours, CellTiter-Glo
T3 construct: fusion of the C-terminus of ROS1 with the N-terminus of various partner proteins; host or cells: Ba/F3 (RIKEN), retroviral pMSCV-puro; the other entry of the earlier key: CD74 (P04233, HLA class II histocompatibility antigen gamma chain)
How it was run: (§3)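 First, retrovirally infected Ba/F3 cells were made IL-3-independent and selected with puromycin (0.8 μg/mL). Next, cells were plated and rested one day. Then compounds in 3-fold dilutions were added for 72 hours before CellTiter-Glo readout.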

[2] = test system: TPM3-NTRK1-wt IC50 / primary target IC50 (e.g. CD74-ROS1-wt); test: TRKA selectivity in Ba/F3 cells (TRKA potency divided by primary target potency); format: cell-based; conditions: for TPM3-NTRK1-wt/CD74-ROS1-G2032R selectivity ratio: TRKA potency / CD74-ROS1-G2032R potency; for TPM3-NTRK1-wt/CD74-ROS1-wt selectivity ratio: TRKA potency / CD74-ROS1-wt potency; for TPM3-NTRK1-wt/EML4-ALK-L1196M-G1202R selectivity ratio: TRKA potency / EML4-ALK-L1196M-G1202R potency; for TPM3-NTRK1-wt/EML4-ALK-wt selectivity ratio: TRKA potency / EML4-ALK-wt potency
Description: TRKA selectivity was calculated by dividing a compound's TRKA potency by its primary target potency (e.g. TPM3-NTRK1-wt IC50/CD74-ROS1-wt IC50). Compound selectivity can be interpreted by binning ratio values: bin A for very high selectivity, ratio >30-fold; bin B for high selectivity, ratio >10-fold; bin C for moderate selectivity, ratio ≥1; and bin D for low selectivity, ratio <1. […] (nd=not determined).

Ba/F3 cells TPM3-TRKA = target: T4, Ba/F3 cells TPM3-TRKA (Homo sapiens, UniProt P04629); test: Ba/F3 cell proliferation assay, TPM3-TRKA; format: cell-based; conditions: 72 hours, CellTiter-Glo, read-out: TPM3-NTRK1-wt IC50
T4 construct: host or cells: Ba/F3 (RIKEN), retroviral pMSCV-puro; the other entry of the earlier key: TPM3 (P06753, Tropomyosin alpha-3 chain)
How it was run: (§4)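 Luminescence from CellTiter-Glo after 72 hours of compound exposure measured viability of IL-3-independent Ba/F3 cells carrying the retrovirally introduced fusion. Cells were plated at 1,000 per well one day before 3-fold serial dilutions were added. IC50 values came from four-parameter logistic regression.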

ROS1-G2032R = target: T5, ROS1-G2032R (Homo sapiens, UniProt P08922, G2032R); test: Biochemical kinase assay, ROS1-G2032R kinase domain; conditions: apparent inhibitory constant, Morrison equation; ATP 2 mM in substrate solution; read-out: ROS1-G2032R Ki^app
T5 construct: purchased SignalChem R14-12BG
How it was run: as §1

ALK-wt = target: T6, ALK-wt (Homo sapiens, UniProt Q9UM73); test: Biochemical kinase assay, ALK-wt kinase domain; conditions: apparent inhibitory constant, Morrison equation; ATP 2 mM in substrate solution; read-out: ALK-wt Ki^app
T6 construct: purchased Carna 08-518
How it was run: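 Apparent Ki values come from fitting initial reaction rates against inhibitor concentration to the Morrison equation. Rates were taken from the linear phase of fluorogenic substrate phosphorylation (AQT0101 for ALK and ROS1, AQT0104 for TRKA; 26 μM in substrate solution with 2 mM ATP), monitored at 485 nm over 120 min at 30° C.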

[3] = target: T7, Ba/F3 cells EML4-ALK wt (variant 1) (Homo sapiens, UniProt Q9UM73); test: Ba/F3 cell proliferation assay, EML4-ALK wt (variant 1); format: cell-based; conditions: 72 hours, CellTiter-Glo
T7 construct: echinoderm microtubule-associated protein-like 4 (EML4) gene and the ALK tyrosine kinase domain; host or cells: Ba/F3 (RIKEN), retroviral pMSCV-puro; the other entry of the earlier key: EML4 (Q9HC35, Echinoderm microtubule-associated protein-like 4)
How it was run: as §4

[4] = target: T8, Ba/F3 cells CD74-ROS1 G2032R (Homo sapiens, UniProt P08922, G2032R); test: Ba/F3 cell proliferation assay, CD74-ROS1 G2032R; format: cell-based; conditions: 72 hours, CellTiter-Glo
T8 construct: fusion of the C-terminus of ROS1 with the N-terminus of various partner proteins; host or cells: Ba/F3 (RIKEN), retroviral pMSCV-puro; the other entry of the earlier key: CD74 (P04233, HLA class II histocompatibility antigen gamma chain)
How it was run: as §3

[5] = target: T9, Ba/F3 cells EML4-ALK L1196M/G1202R (variant 1) (Homo sapiens, UniProt Q9UM73, G1202R/L1196M); test: Ba/F3 cell proliferation assay, EML4-ALK L1196M/G1202R (variant 1); format: cell-based; conditions: 72 hours, CellTiter-Glo
T9 construct: echinoderm microtubule-associated protein-like 4 (EML4) gene and the ALK tyrosine kinase domain; host or cells: Ba/F3 (RIKEN), retroviral pMSCV-puro; the other entry of the earlier key: EML4 (Q9HC35, Echinoderm microtubule-associated protein-like 4)
How it was run: as §4

TRKA-wt = target: T10, TRKA-wt (Homo sapiens, UniProt P04629); test: Biochemical kinase assay, TRKA-wt kinase domain; conditions: apparent inhibitory constant, Morrison equation; ATP 2 mM in substrate solution; read-out: TRKA-wt Ki^app
T10 construct: or TRKA-wt (1 nM, BPS Bio, 40280) kinase domains in buffer; purchased BPS Bio 40280
How it was run: as §2

T10 sequence (P04629 510-781 limits assumed): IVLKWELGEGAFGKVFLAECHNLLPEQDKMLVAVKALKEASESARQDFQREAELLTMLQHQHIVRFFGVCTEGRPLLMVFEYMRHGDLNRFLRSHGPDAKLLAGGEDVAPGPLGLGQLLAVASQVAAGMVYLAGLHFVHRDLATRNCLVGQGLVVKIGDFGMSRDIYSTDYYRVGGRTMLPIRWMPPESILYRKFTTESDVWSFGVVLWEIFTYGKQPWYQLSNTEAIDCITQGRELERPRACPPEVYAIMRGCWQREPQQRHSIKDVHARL
T1 sequence (P08922 1945-2222 limits assumed): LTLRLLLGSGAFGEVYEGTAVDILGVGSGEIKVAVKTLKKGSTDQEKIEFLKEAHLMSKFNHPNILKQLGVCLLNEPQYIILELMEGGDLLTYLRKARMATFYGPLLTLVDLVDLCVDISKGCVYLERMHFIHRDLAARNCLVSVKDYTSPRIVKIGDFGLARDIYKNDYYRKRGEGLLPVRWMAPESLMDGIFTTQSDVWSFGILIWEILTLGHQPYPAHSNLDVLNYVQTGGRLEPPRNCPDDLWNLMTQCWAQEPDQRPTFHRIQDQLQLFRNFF
T9 sequence (Q9UM73 with tags, fused parts or gaps L1196M/G1202R): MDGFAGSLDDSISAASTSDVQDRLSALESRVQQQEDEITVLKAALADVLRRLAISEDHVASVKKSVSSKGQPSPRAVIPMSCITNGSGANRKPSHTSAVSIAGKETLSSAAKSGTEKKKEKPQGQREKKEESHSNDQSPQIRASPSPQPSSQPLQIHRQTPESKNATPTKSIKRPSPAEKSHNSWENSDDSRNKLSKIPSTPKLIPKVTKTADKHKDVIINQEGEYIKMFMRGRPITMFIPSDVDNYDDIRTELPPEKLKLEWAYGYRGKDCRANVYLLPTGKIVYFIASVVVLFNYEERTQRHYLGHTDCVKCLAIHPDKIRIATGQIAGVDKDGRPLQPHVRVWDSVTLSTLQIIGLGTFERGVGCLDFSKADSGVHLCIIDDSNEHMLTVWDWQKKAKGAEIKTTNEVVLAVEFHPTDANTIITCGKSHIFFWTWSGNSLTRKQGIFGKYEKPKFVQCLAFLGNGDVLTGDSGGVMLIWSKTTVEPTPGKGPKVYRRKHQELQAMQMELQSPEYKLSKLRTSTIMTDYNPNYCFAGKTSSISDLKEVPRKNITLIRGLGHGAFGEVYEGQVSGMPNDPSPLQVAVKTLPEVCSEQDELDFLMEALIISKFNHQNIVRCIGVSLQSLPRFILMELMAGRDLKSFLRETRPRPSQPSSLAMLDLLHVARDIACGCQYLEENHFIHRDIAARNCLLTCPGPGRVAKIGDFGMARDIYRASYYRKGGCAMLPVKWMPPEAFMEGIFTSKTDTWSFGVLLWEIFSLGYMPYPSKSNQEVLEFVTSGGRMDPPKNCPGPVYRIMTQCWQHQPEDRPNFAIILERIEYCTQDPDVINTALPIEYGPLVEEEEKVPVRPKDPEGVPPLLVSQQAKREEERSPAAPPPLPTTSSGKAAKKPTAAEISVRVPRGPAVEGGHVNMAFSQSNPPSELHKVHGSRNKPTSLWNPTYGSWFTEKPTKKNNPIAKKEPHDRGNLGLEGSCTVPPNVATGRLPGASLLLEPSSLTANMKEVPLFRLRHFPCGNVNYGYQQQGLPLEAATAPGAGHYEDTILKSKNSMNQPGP
T8 sequence (P08922 1883-2347 G2032R limits assumed): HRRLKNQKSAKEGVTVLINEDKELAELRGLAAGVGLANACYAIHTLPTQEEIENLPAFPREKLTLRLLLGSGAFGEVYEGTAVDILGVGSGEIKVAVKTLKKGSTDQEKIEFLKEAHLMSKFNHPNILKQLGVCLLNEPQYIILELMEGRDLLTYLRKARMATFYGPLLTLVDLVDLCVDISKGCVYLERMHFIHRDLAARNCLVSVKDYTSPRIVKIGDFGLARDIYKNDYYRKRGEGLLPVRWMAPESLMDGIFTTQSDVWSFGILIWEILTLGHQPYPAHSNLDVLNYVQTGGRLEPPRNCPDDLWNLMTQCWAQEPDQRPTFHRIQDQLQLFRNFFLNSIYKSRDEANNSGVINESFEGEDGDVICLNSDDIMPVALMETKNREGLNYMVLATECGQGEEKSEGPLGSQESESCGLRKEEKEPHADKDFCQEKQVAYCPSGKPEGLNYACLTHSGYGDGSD
T2 sequence (Q9UM73 1116-1392 L1196M/G1202R limits assumed): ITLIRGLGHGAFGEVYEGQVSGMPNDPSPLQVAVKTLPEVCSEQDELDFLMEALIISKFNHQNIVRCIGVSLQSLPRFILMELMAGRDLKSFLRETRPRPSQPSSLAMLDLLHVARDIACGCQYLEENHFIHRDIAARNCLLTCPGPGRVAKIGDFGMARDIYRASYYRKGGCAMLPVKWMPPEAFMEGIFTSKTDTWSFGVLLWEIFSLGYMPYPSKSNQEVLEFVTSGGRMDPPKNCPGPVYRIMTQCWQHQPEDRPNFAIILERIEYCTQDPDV
T4 sequence (P04629 510-796 limits assumed): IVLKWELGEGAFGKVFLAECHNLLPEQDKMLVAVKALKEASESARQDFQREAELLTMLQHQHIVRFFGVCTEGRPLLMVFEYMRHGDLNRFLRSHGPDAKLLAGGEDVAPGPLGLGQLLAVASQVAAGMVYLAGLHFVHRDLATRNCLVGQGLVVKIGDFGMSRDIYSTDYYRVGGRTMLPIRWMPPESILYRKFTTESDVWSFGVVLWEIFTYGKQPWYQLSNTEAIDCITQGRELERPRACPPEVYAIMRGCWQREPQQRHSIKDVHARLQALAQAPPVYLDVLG
T7 sequence (Q9UM73 with tags, fused parts or gaps): as the sequence (Q9UM73 with tags, fused parts or gaps L1196M/G1202R) above, with M635L, R641G counted along it
T3 sequence (P08922 1883-2347 limits assumed): as the sequence (P08922 1883-2347 G2032R limits assumed) above, with R150G counted along it
T6 sequence (Q9UM73 1116-1392 limits assumed): as the sequence (Q9UM73 1116-1392 L1196M/G1202R limits assumed) above, with M81L, R87G counted along it
T5 sequence (P08922 1945-2222 G2032R limits assumed): as the sequence (P08922 1945-2222 limits assumed) above, with G88R counted along it

Row | Compound | Ki (ROS1-wt) [nM] | Ki (ALK L1196M/G1202R) [nM] | IC50 [1] [nM] | TPM3-NTRK1-wt/CD74-ROS1-G2032R selectivity ratio [2] | TPM3-NTRK1-wt/CD74-ROS1-wt selectivity ratio [2] | TPM3-NTRK1-wt/EML4-ALK-L1196M-G1202R selectivity ratio [2] | TPM3-NTRK1-wt/EML4-ALK-wt selectivity ratio [2] | IC50 (Ba/F3 cells TPM3-TRKA) [nM] | Ki (ROS1-G2032R) [nM] | Ki (ALK-wt) [nM] | IC50 [3] [nM] | IC50 [4] [nM] | IC50 [5] [nM] | Ki (TRKA-wt) [nM]
1 | C[C@H]1Oc2cc(cnc2N)-c2c(cnn2C2CCC2)Cn2ncc(C#N)c2-c2ccc(F)cc21 [Example 10, (19R)-22-amino-3-cyclobutyl-16-fluoro-19-methyl-20-oxa-3,4,8,9,23-pentaazapentacyclo[19.3.1.0^2,^6.0^8,^12.0^13,^18]pentacosa-1(24),2(6),4,9,11,13,15,1 7,21(25),22-decaene-11-carbonitrile] | < 50 | < 50 | 0.1 to 50 | A (bin A for very high selectivity, ratio >30-fold) | A (bin A for very high selectivity, ratio >30-fold) | B (bin B for high selectivity, ratio >10-fold) | A (bin A for very high selectivity, ratio >30-fold) | > 500 | < 50 | < 50 | 0.1 to 50 | 0.1 to 50 | 50 to 500 | > 500
2 | Cc1nn(CC(C)C)c2c1Cn1ncnc1-c1ccc(F)cc1[C@@H](C)Oc1cc-2cnc1N [Example 79, (19R)-16-fluoro-5,19-dimethyl-3-(2-methylpropyl)-20-oxa-3,4,8,9,11,23-hexaazapentacyclo [19.3.1.0^2,^6.0^8,^12.0^13,^18]pentacosa-1(2.4),2(6),4,9,11,13,15,17,21(25),22-decaen-22-amine] | < 50 | 50 to 500 | 0.1 to 50 | B (bin B for high selectivity, ratio >10-fold) | A (bin A for very high selectivity, ratio >30-fold) | C (bin C for moderate selectivity, ratio ≥1) | A (bin A for very high selectivity, ratio >30-fold) | > 500 | > 500 | < 50 | 0.1 to 50 | > 500 | > 500 | > 500
3 | C[C@H]1Oc2cc(cnc2N)-c2c(C#N)cnn2Cc2nccnc2-c2ccc(F)cc21 [Example 47] | < 50 | 50 to 500 | 0.1 to 50 | B (bin B for high selectivity, ratio >10-fold) | A (bin A for very high selectivity, ratio >30-fold) | C (bin C for moderate selectivity, ratio ≥1) | A (bin A for very high selectivity, ratio >30-fold) | > 500 | > 500 | < 50 | 0.1 to 50 | 50 to 500 | > 500 | > 500
4 | CCn1ncc2c1-c1cnc(N)c(c1)O[C@H](C)c1cc(F)ccc1-n1ncnc1C2 [Example 38, (19R)-3-ethyl-16-fluoro-19-methyl-20-oxa-3,4,9,11,12,23-hexaazapentacyclo[19.3.1.0^2,^6.0^8,^12.0^13,^18]pentacosa-1(24),2(6),4,8,10,13,15,17,21(25),22-decaen-22-amine] | < 50 | < 50 | 0.1 to 50 | A (bin A for very high selectivity, ratio >30-fold) | A (bin A for very high selectivity, ratio >30-fold) | C (bin C for moderate selectivity, ratio ≥1) | A (bin A for very high selectivity, ratio >30-fold) | > 500 | < 50 | < 50 | 0.1 to 50 | 0.1 to 50 | 50 to 500 | 50 to 500
5 | C[C@H]1Oc2cc(cnc2N)-c2c(cnn2CC(F)F)Cc2ncc(F)cc2-c2ccc(F)cc21 [Example 73, (20R)-3-(2,2difluoroethyl)-11,17-difluoro-20-methyl-21-oxa-3,4.9,24-tetraazapentacyclo[20.3.1.0^2,^6.0^8,^13.0^13,^19]hexacosa-1(25),2(6),4,8(13),9,11,14,16,18,22(26),23-undecaen-23-amine] | < 50 | < 50 | 0.1 to 50 | A (bin A for very high selectivity, ratio >30-fold) | A (bin A for very high selectivity, ratio >30-fold) | C (bin C for moderate selectivity, ratio ≥1) | A (bin A for very high selectivity, ratio >30-fold) | 50 to 500 | < 50 | < 50 | 0.1 to 50 | 0.1 to 50 | 50 to 500 | 50 to 500
